Measurements reported in patent publication EP2444396A1, “PHOTOPROTECTIVE COMPOSITION” (Apoteknos Para La Piel, S.L., priority 2009, dated 2010).

What was measured:
ERα = biological target: T1, ERα (Homo sapiens, UniProt P03372); assay: Estrogenicity reporter gene bioassay (luciferase activity) in HELN-ERα cells; type: cell-based
T1 construct: expressed in transfected cells; host or cells: HeLa (HELN-ERα)
T1 sequence (P03372 1-595): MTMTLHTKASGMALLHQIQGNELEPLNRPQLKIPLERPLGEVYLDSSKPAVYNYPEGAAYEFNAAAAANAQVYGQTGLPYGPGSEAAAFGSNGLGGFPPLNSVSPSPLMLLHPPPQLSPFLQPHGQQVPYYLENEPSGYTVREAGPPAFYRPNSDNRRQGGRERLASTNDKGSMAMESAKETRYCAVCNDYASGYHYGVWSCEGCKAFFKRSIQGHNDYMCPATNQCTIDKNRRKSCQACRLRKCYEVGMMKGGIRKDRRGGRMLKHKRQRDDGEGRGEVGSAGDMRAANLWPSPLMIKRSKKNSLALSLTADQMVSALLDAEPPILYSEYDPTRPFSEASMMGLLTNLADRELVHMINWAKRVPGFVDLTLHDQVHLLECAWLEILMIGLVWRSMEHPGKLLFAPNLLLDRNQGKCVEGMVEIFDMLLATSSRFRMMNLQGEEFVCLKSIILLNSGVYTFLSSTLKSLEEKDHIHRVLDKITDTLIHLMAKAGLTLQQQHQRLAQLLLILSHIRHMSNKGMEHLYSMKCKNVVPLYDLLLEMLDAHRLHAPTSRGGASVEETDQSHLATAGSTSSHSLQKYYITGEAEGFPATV
Text: (§1) Briefly, the transactivation bioassay (Reporter gene assay) used are based on the use of breast and uterine cancer cell lines transfected with different native or modified hormone receptors. The resulting cell lines further contain a reporter gene regulated by estrogens through the estrogen response element, the globin promoter and the luciferase gene.
HELN-ERα and HELN-ERβ cell lines were obtained by means of transfecting the HeLa uterine cancer cell line. In a first phase, said cells were transfected with an estrogen sensitive response element and then with the estrogen receptor alpha or beta (ERα or ERβ). The selection of clones resistant to geneticin and puromycin was performed using a concentration of 1 mg/mL and 0.5 mg/mL, respectively. The maintenance medium as well as the experimental medium of these 2 cell lines is DMEM F12 without phenol red supplemented with 6% of FBS (lacking of estrogens), 1% of penicillin / streptomycin, 1 mg/mL of geneticin and 0.5 µg/mL of puromycin.
(§2) The cells were seeded at a density of 5x10^4 cells per well in white opaque 96 well plates in 150 µL of experimental medium. After 8 hours, the compounds to be assayed (p-nitrolophine and estradiol) were prepared (concentrated 4x) in the same medium and were added to each well (50 µl). The cells were incubated for 16 hours at 37°C. At the end of the incubation, the medium was removed and replaced with fresh medium containing […] luciferin [at that concentration, luciferin diffuses into cell producing a luminescent signal which is stable after 5 minutes and for at least 2 hours]. The plates were then introduced in the luminometer to measure the luminescence for 2 seconds. A YicroBeta Trilux luminometer (EGG Wallac) apparatus was used to detect luciferase activity.
(§3) The assays were preformed in quadruple for each concentration (0.01-10 µM) in at least three independent experiments. […] The values of luciferase activity obtained were analyzed using the one-way ANOVA statistic test. The differences were considered significant when P was less than […] (P < 0.05).

[1] = biological target: T2, estrogen receptor alpha (ERα) (Homo sapiens, UniProt P03372); assay: Estrogenicity reporter gene bioassay (luciferase activity) in MELN cells; type: cell-based
T2 construct: which endogenously express the estrogen receptor alpha (ERα); endogenous in cells; host or cells: MELN (MCF-7 stably transfected with ERE-βGlob-Luc-SV-Neo)
T2 sequence (P03372 1-595): T1 sequence (P03372 1-595)
Text: as §1
MELN cells were obtained by means of transfecting the MCF-7 breast cancer cell line [which endogenously express the estrogen receptor alpha (ERα)] with an estrogen sensitive response element (ERE-βGlob-Luc-SV-Neo). The selection of clones resistant to geneticin was performed using a concentration of 1 mg/mL. The maintenance medium for this cell line is DMEM F12 (Dulbecco's modified Eagle medium) with phenol red supplemented with 10% FBS, 1% of penicillin/streptomycin and 1 mg/mL of geneticin. Due to the estrogenic activity of the phenol red and FBS, the experiments are preformed in medium known as experimental medium, i.e., a culture medium without phenol red and with FBS lacking of estrogens. The experimental medium for this line is DMEM without phenol red supplemented with 3% of FBS treated with carbon-dextran.
as §2, §3

- activity at 0.01 µM (ERα): 11.1 ± 0.9%
- activity at 0.03 µM (ERα): 11.7 ± 0.9%
- activity at 0.1 µM (ERα): 10.7 ± 1.1%
- activity at 0.3 µM (ERα): 11.3 ± 1.5%
- activity at 1 µM (ERα): 11.1 ± 1.1%
- activity at 3 µM (ERα): 11.2 ± 1.4%
- activity at 10 µM (ERα): 11.6 ± 1.5%
- estrogenicity (ERα; HELN-ERα line, conclusion in words): not estrogenic
- activity at 0.01 µM [1]: 15.2 ± 0.6%
- activity at 0.03 µM [1]: 15.3 ± 0.5%
- activity at 0.1 µM [1]: 15.6 ± 0.3%
- activity at 0.3 µM [1]: 15.5 ± 0.9%
- activity at 1 µM [1]: 16 ± 0.4%
- activity at 3 µM [1]: 15.2 ± 0.4%
- activity at 10 µM [1]: 15.6 ± 0.9%
- estrogenicity ([1]; MELN cells, up to 10 µM, conclusion in words): not an estrogenic compound
SMILES: O=[N+]([O-])c1ccc(-c2nc(-c3ccccc3)c(-c3ccccc3)[nH]2)cc1 [p-nitrolophine, 2-(4-nitrophenyl)-4,5-diphenyl-1H-imidazole]
